Assay results from US20040192673A1, “N-aroyl cyclic amine derivatives as orexin receptor antagonists” (priority 2001, published 2004).

Experiments:
[1] = tested on: rat; assay: Rat sleep/EEG studies; type: in vivo; details: central administration at the onset of the normal sleep period
Source text: Therefore antagonists of its receptor may be useful in the treatment of sleep disorders including insomnia.

[2] = tested on: freely-feeding rats; details: central administration, 4 hour time period; cited from earlier work

Substance: orexin-A: ligand for the orexin-1 receptor, an agonist of the orexin receptors; 33-residue peptide, sequence in b167 (QPLPDCCRQKTCSCRLYELLHGAGNHAAGILTL; not fully specified; Orexin-A; UniProt O43612 34-66, looked up)
- arousal (sleep/EEG) [1]: dose-related increase in arousal
- increase in food intake over control rats receiving vehicle [2]: approximately four-fold
